Source: US4443436A, “C-20-Modified macrolide derivatives of the macrolide antibiotics tylosin, desmycosin, macrocin, and lactenocin” (Eli Lilly and Company, priority 1982, dated 1984)
≈ marks a conversion by molar mass, not a printed value. Where two headings read alike, the source gives them in different places.

Tests used:
[1] = system: Staphylococcus epidermidis EPI2; experiment: MIC, standard agar-dilution assay, Staphylococcus epidermidis EPI2; assay type: cell-based
[2] = system: Streptococcus pyogenes C203; experiment: In vivo protection of mice experimentally infected with S. pyogenes C203; conditions: Streptococcus pyogenes, mice, doses given 1 and 4 hours post-infection
Method: The C-20 modified derivatives of this invention have shown in vivo antimicrobial activity against experimentally-induced infections in laboratory animals. When two doses of test compound were administered to mice experimentally infected with S. pyogenes C203, the activity observed was measured as an ED50 value [effective dose in mg/kg to protect 50% of the test animals: see Warren Wick, et al., J. Bacteriol. 81, 233-235 (1961)].

[3] = system: Streptococcus bovis 80; experiment: MIC, broth-dilution microtiter test, Streptococcus bovis 80; assay type: cell-based; conditions: Streptococcus equinus
Excerpt: (§1) The MIC's in Table X were obtained using conventional broth-dilution microtiter tests.

[4] = system: Streptococcus Group D X66; experiment: MIC, standard agar-dilution assay, Streptococcus Group D X66; assay type: cell-based
[5] = system: Mycoplasma gallisepticum; experiment: MIC, broth-dilution microtiter test, Mycoplasma gallisepticum; assay type: cell-based; conditions: Mycoplasmoides gallisepticum
Excerpt: as §1

[6] = system: Pasteurella multocida 17E; experiment: MIC, broth-dilution microtiter test, Pasteurella multocida 17E; assay type: cell-based
Excerpt: as §1

[7] = system: Mycoplasma hyorhinis; experiment: MIC, broth-dilution microtiter test, Mycoplasma hyorhinis; assay type: cell-based; conditions: Mycoplasma
Excerpt: as §1

[8] = system: Staphylococcus aureus S13E; experiment: MIC, standard agar-dilution assay, Staphylococcus aureus S13E; assay type: cell-based; conditions: Staphylococcus aureus, S13E
[9] = system: Pasteurella hemolytica 22C; experiment: MIC, broth-dilution microtiter test, Pasteurella hemolytica 22C; assay type: cell-based
Excerpt: as §1

[10] = system: Haemophilus influenzae Holt; experiment: MIC, standard agar-dilution assay, Haemophilus influenzae Holt; assay type: cell-based
[11] = system: Pasteurella multocida; experiment: Oral (gavage) treatment of Pasteurella multocida-infected chicks; assay type: in vivo, one-day-old chicks
Method: (§2) Many of the C-20 modified derivatives of this invention have also shown in vivo antibacterial activity against infections induced by gram-negative bacteria. Tables XII and XIII summarize the results of tests in which illustrative compounds were evaluated against Pasteurella infection in one-day-old chicks. The compounds were administered parenterally or orally after challenge of the chicks with Pasteurella multocida (0.1 ml of a 10^-4 dilution of a twenty-hour tryptose broth culture of an avian P. multocida given subcutaneously). In these tests, unless indicated otherwise, all non-medicated infected chicks died within 24 hours of Pasteurella challenge. In the tests summarized in Table XII the compounds were administered by subcutaneous injection at a dosage of 30 mg/kg, 1 and 4 hours post-challenge of the chicks with P. multocida. In the test summarized in Table XIII the compounds were administered by gavage at 1 and 5 hours post-challenge of the chicks with P. multocida.

[12] = system: Staphylococcus aureus; experiment: MIC, broth-dilution microtiter test, Staphylococcus aureus; assay type: cell-based
Excerpt: as §1

[13] = system: Haemophilus influenzae R252; experiment: MIC, standard agar-dilution assay, Haemophilus influenzae R252; assay type: cell-based
[14] = system: Streptococcus pyogenes C203; experiment: MIC, standard agar-dilution assay, Streptococcus pyogenes C203; assay type: cell-based
[15] = system: Pasteurella multocida 60A; experiment: MIC, broth-dilution microtiter test, Pasteurella multocida 60A; assay type: cell-based
Excerpt: as §1

[16] = system: Staphylococcus aureus V41; experiment: MIC, standard agar-dilution assay, Staphylococcus aureus V41; assay type: cell-based
[17] = system: Staphylococcus epidermidis EPI1; experiment: MIC, standard agar-dilution assay, Staphylococcus epidermidis EPI1; assay type: cell-based
[18] = system: Staphylococcus aureus X1.1; experiment: MIC, standard agar-dilution assay, Staphylococcus aureus X1.1; assay type: cell-based
[19] = system: Staphylococcus aureus X400; experiment: MIC, standard agar-dilution assay, Staphylococcus aureus X400; assay type: cell-based
[20] = system: Pasteurella multocida; experiment: Subcutaneous treatment of Pasteurella multocida-infected chicks; assay type: in vivo, one-day-old chicks
Method: as §2

[21] = system: Mycoplasma hyopneumoniae; experiment: MIC, broth-dilution microtiter test, Mycoplasma hyopneumoniae; assay type: cell-based; conditions: Mesomycoplasma hyopneumoniae; Mycoplasma hyopneumoniae; broth-dilution microtiter; read-out: MIC
Excerpt: as §1

[22] = system: Streptococcus pneumoniae Park I; experiment: microbe, parasite or virus in culture; assay type: cell-based; conditions: Streptococcus pneumoniae
[23] = system: Mycoplasma synoviae; experiment: MIC, broth-dilution microtiter test, Mycoplasma synoviae; assay type: cell-based; conditions: Mycoplasmopsis synoviae
Excerpt: as §1

[24] = system: Streptococcus Group 9960; experiment: MIC, standard agar-dilution assay, Streptococcus Group 9960; assay type: cell-based; conditions: GROUP9960
[25] = Staphylococcus epidermidis EPI2, agar dilution, read-out: MIC
[26] = C203, sc, subcutaneous, read-out: ED50, Subcutaneous
[27] = C203, oral, read-out: ED50, Oral
[28] = Streptococcus Group D X66, agar dilution, read-out: MIC
[29] = Mycoplasma gallisepticum, broth-dilution microtiter, read-out: MIC
[30] = Pasteurella multocida 17E, bovine isolate, broth-dilution microtiter, read-out: MIC
[31] = Pasteurella hemolytica 22C, broth-dilution microtiter, read-out: MIC
[32] = broth-dilution microtiter, read-out: MIC
[33] = Haemophilus influenzae R252, ampicillin-resistant strain, read-out: MIC
[34] = Streptococcus pyogenes C203, agar dilution, read-out: MIC
[35] = Pasteurella multocida 60A, avian isolate, broth-dilution microtiter, read-out: MIC
[36] = Staphylococcus epidermidis, EPI1
[37] = Staphylococcus aureus X1.1, agar dilution, read-out: MIC
[38] = Staphylococcus aureus X400, methicillin-resistant strain, agar dilution, read-out: MIC
[39] = 30 mg/kg × 2, 1 and 4 hours post-challenge
[40] = Mycoplasma synoviae, broth-dilution microtiter, read-out: MIC
[41] = 2.0 g/gal equivalent, 11/20 infected nonmedicated chicks died in this test

Row | SMILES | MIC [1, 25] [µg/mL] | ED50 [2, 26] [mg/kg] | ED50 [2, 27] [mg/kg] | MIC [4, 28] [µg/mL] | MIC [5, 29] [µg/mL] | MIC [6, 30] [µg/mL] | MIC [7] [µg/mL] | MIC [8] [µg/mL] | MIC [9, 31] [µg/mL] | Number of Deaths/Number tested ([11]; 0.5 g/gal equivalent) | MIC [12, 32] [µg/mL] | MIC [13, 33] [µg/mL] | MIC [14, 34] [µg/mL] | MIC [15, 35] [µg/mL] | MIC [17, 36] [µg/mL] | MIC [18, 37] [µg/mL] | MIC [19, 38] [µg/mL] | Number of Deaths/Number Treated [20, 39] | MIC [21] [µg/mL] | MIC [22] [µg/mL] | other results
1 | CCC1OC(=O)CC(O)C(C)C(OC2OC(C)C(O)C(N(C)C)C2O)C(CCOC(C)=O)CC(C)C(=O)C=CC(C)=CC1COC1OC(C)C(O)C(OC)C1OC (centres unmarked) [Compound 29, 20-DH-20-O-Acetyldesmycosin] | 0.12 (≈ 0.147 µM) | 3.4 | 36 | 8 (≈ 9.8 µM) | 0.39 (≈ 0.478 µM) | 12.5 (≈ 15.3 µM) | 50 (≈ 61.3 µM) | 0.25 (≈ 0.306 µM) | 25 (≈ 30.6 µM) | 0/10 | 0.78 (≈ 0.956 µM) | 16 (≈ 19.6 µM) | 2 (≈ 2.45 µM) | 25 (≈ 30.6 µM) | 0.25 (≈ 0.306 µM) | 0.5 (≈ 0.613 µM) | 0.5 (≈ 0.613 µM) | 5/10 | 12.5 (≈ 15.3 µM) | 0.25 (≈ 0.306 µM) | MIC ([3]; Streptococcus bovis 80, broth-dilution microtiter, read-out: MIC): 0.78 µg/mL (≈ 0.956 µM); MIC ([10]; Haemophilus influenzae Holt, ampicillin-sensitive strain, read-out: MIC): 16 µg/mL (≈ 19.6 µM); Number of Deaths/Number tested ([11]; 1.0 g/gal equivalent): 3/10; MIC ([16]; Staphylococcus aureus V41, penicillin-resistant strain, agar dilution, read-out: MIC): 0.5 µg/mL (≈ 0.613 µM); MIC [23, 40]: 1.56 µg/mL (≈ 1.91 µM)
2 | CCOC(=O)C1CSC(CC2CC(C)C(=O)C=CC(C)=CC(COC3OC(C)C(O)C(OC)C3OC)C(CC)OC(=O)CC(O)C(C)C2OC2OC(C)C(O)C(N(C)C)C2O)N1 (centres unmarked) [Compound 76] |  | 4.8 | 17 | 466 (≈ 516 µM) |  | 25 (≈ 27.7 µM) | 50 (≈ 55.4 µM) |  | 25 (≈ 27.7 µM) | 3/10 |  | 3250 (≈ 3600 µM) | 0.53 (≈ 0.587 µM) | 25 (≈ 27.7 µM) |  | 0.51 (≈ 0.565 µM) | 2400 (≈ 2660 µM) | 3/10 | 0.19 (≈ 0.21 µM) | 0.25 (≈ 0.277 µM) | MIC ([1]; Staphylococcus epidermidis, EPI2): 0.25 µg/mL (≈ 0.277 µM); MIC [3]; 80: 3.12 µg/mL (≈ 3.45 µM); MIC [5]: 1.56 µg/mL (≈ 1.73 µM); Number of Deaths/Number tested ([11]; 1.0 g/gal equivalent, 13/20 infected nonmedicated chicks died in this test): 4/10; Number of Deaths/Number tested [11, 41]: 4/10; MIC [12]: 0.78 µg/mL (≈ 0.864 µM); MIC ([16]; Staphylococcus aureus, V41): 0.5 µg/mL (≈ 0.554 µM); MIC ([17]; Staphylococcus epidermidis EPI1, agar dilution, read-out: MIC): 0.51 µg/mL (≈ 0.565 µM); MIC [23]: 3.12 µg/mL (≈ 3.45 µM)
3 | CCC1OC(=O)CC(O)C(C)C(OC2OC(C)C(O)C(N(C)C)C2O)C(CC2SCCN2Cc2ccccc2)CC(C)C(=O)C=CC(C)=CC1COC1OC(C)C(O)C(OC)C1OC (centres unmarked) [Compound 77] | 0.12 (≈ 0.13 µM) | > 10 | 19 |  | 0.09 (≈ 0.0977 µM) |  | 6.25 (≈ 6.78 µM) | 0.25 (≈ 0.271 µM) |  |  | 0.39 (≈ 0.423 µM) |  |  |  | 0.25 (≈ 0.271 µM) |  |  |  | 0.19 (≈ 0.206 µM) | 1 (≈ 1.09 µM) | MIC [3]; 80: 3.12 µg/mL (≈ 3.39 µM); MIC [4]: 4 µg/mL (≈ 4.34 µM); MIC ([6]; Pasteurella multocida, 17E): 12.5 µg/mL (≈ 13.6 µM); MIC ([9]; Pasteurella, 22C): 12.5 µg/mL (≈ 13.6 µM); MIC ([10]; Haemophilus influenzae): 16 µg/mL (≈ 17.4 µM); Number of Deaths/Number tested [11, 41]: 4/10; MIC ([13]; Haemophilus influenzae, R252): 16 µg/mL (≈ 17.4 µM); MIC ([14]; Streptococcus pyogenes, C203): 0.25 µg/mL (≈ 0.271 µM); MIC ([15]; Pasteurella multocida, 60A): 12.5 µg/mL (≈ 13.6 µM); MIC ([16]; Staphylococcus aureus, V41): 0.25 µg/mL (≈ 0.271 µM); MIC ([18]; Staphylococcus aureus, X1.1): 0.25 µg/mL (≈ 0.271 µM); MIC ([19]; Staphylococcus aureus, X400): 0.25 µg/mL (≈ 0.271 µM); Number of Deaths/Number Treated ([20]; 30 mg/kg × 2, 8/10 and 9/10 of two groups of infected nonmedicated chicks died): 8/10; MIC [24]: 4 µg/mL (≈ 4.34 µM); MIC [23, 40]: 0.19 µg/mL (≈ 0.206 µM)
